Experimental data as given in patent publication US20080181971A1, “Combination Cancer Treatments Comprising Elsamitrucin and Other Agents” (priority 2007, published 2008).

Tested on: HCT116 human colon carcinoma
Assay: HCT116-e256 study: tumor growth delay of subcutaneous HCT116 xenografts in nude mice
Assay type: in vivo
Details: for Median TTE (time to endpoint): endpoint 2000 mm^3, control 25.1; for tumor growth delay (TGD): percent of median TTE of untreated group
Description: Tumors were measured twice weekly during the experiment, and each animal was euthanized when its tumor reached the endpoint volume of 2000 mm^3 or on the last day of the study (Day 59), whichever came first.
Treatment outcome was assessed by tumor growth delay (TGD), defined as the difference in median time to endpoint tumor burden in a treatment group compared to a control group.
a. Mice. […] The mice were housed on irradiated ALPHA-Dri® Bed-O'Cobs® Laboratory Animal Bedding in static microisolators on a 12-hour light cycle at 21-22° C. (70-72° F.) and 40-60% humidity. Testing facilities complied with the recommendations of the Guide for Care and Use of Laboratory Animals with respect to restraint, husbandry, surgical procedures, feed and fluid regulation, and veterinary care. The animal care and use program at the testing facility is accredited by AAALAC, which assures compliance with accepted standards for the used and care of laboratory animals.
b. Tumor Implantation. […] On the day of tumor implant, the cells were trypsinized, harvested by centrifugation and resuspended in phosphate buffered saline. Each mouse received 5×10^6 HCT116 tumor cells in 0.2 mL implanted subcutaneously in the right flank, and tumor growth was monitored. […] Tumor volume was calculated using the formula: […]
c. Therapeutic Agents. […] The 0.5 mg/mL dosing solution was prepared by 2-fold dilution in distilled water. Both solutions were prepared fresh for each dose administered.
Dosing solutions of 0.75 and 1.5 mg/mL were formulated fresh for each dose by diluting the stock solution ten-fold with D5W.
d. Treatment Plan. […] Note the routes of administration and schedules detailed in Table 10. All doses were given in volumes of 0.2 mL per 20 g of body weight (10 mL/kg), and were scaled to the body weight of the animal.
e. Endpoint. Tumors were measured twice weekly using calipers. Each animal was euthanized when its tumor reached the endpoint size of 2000 mm^3 or at the conclusion of the study on Day 59, whichever came first. The time to endpoint (TTE) for each mouse was calculated from the following equation: […]
where b is the intercept and m is the slope of the line obtained by linear regression of a log-transformed tumor growth data set. The data set was comprised of the first observation that exceeded the study endpoint volume and the three consecutive observations that immediately preceded the attainment of the endpoint volume. […] Animals classified as NTR (non-treatment-related) deaths due to accident (NTRa) or due to unknown causes (NTRu) were excluded from TTE calculations (and all further analyses). Animals classified as TR (treatment-related) deaths or NTRm (non-treatment-related death due to metastasis) were assigned a TTE value equal to the day of death.
Treatment outcome was evaluated by tumor growth delay (TGD), which is defined as the increase in the median time to endpoint (TTE) in a treatment group compared to the control group:
Treatment may cause partial regression (PR) or complete regression (CR) of the tumor in an animal. […] An animal with a CR response at the termination of a study is additionally classified as a tumor-free survivor (TFS). Regression responses were monitored and recorded.
g. Statistical and Graphical Analyses. The Logrank test was used to analyze the significance of the differences between the TTE values of treated and control groups. Two-tailed statistical analyses were conducted at significance level P=0.05.
Median tumor growth curves show group median tumor volumes as a function of time. When an animal exited the study due to tumor size, the final tumor volume recorded for the animal was included with the data used to calculate the group median tumor volume at subsequent time points. Curves were truncated after 50% of the animals in a group had exited the study, or after the second TR death in a group, whichever came first (see the exception in FIG. 8).

[1] = Groups 2,4,6,8,10: elsamitrucin 10 mg/kg ip q4d x3, paclitaxel 15 mg/kg iv qod x5, cisplatin 2.7 mg/kg ip qd x5
[2] = Groups 3,5,7,9,11: elsamitrucin 5 mg/kg ip q4d x3, paclitaxel 7.5 mg/kg iv qod x5, cisplatin […] ip qd x5

Structure (SMILES) | % TGD = [(T − C)/C] × 100 [1] [%] | No. of CR (complete regression) [1] | No. of PR (partial regression) [1] | No. of TFS (tumor free survivor) [1] | T − C (difference between median TTE of treated versus control group) [1] [days] | Median TTE (time to endpoint) [1] [days] | % TGD = [(T − C)/C] × 100 [2] [%] | No. of CR (complete regression) [2] | No. of PR (partial regression) [2] | No. of TFS (tumor free survivor) [2] | T − C (difference between median TTE of treated versus control group) [2] [days] | Median TTE (time to endpoint) [2] [days] | tumor growth delay (TGD) (higher dose level) [%] | tumor growth delay (TGD) (lower dose level) [%] | MTV (n) Day 59 (median tumor volume) (Groups 2,4,6,8,10: elsamitrucin 10 mg/kg ip q4d x3, paclitaxel 15 mg/kg iv qod x5, animals remaining on Day 59, n in brackets) | tumor regressions (elsamitrucin monotherapy groups, 10 or 5 mg/kg i.p. q4d x3) | partial regression response (higher dose level, animals of ten)
N.N.[Cl][Pt][Cl] [Cisplatin, cisplatin] | 23 | 0 | 0 | 0 | 5.7 | 30.8 | 1 | 0 | 0 | 0 | 0.2 | 25.3 | 23 | 1 | – | – | –
CO[C@@H]1[C@@H](N)[C@@H](O[C@H]2[C@H](Oc3cccc4c(O)c5c(=O)oc6ccc(C)c7c(=O)oc(c34)c5c67)O[C@H](C)[C@H](O)[C@]2(C)O)O[C@H](C)[C@@H]1O [Elsamitrucin, benzo(h)(1)benzopyrano(5,4,3-cde)(1)ebnzopyran-5,12-dione,10((2-O-(2-amino-2,6-dideoxy-3-O-methyl-alpha-D-galactopyranosyl)-6-deoxy-3-C-methyl-beta-D-galactopyranosyl)oxy)-6-hydroxy-1-methyl] | 8 | 0 | 0 | 0 | 2.0 | 27.1 | 6 | 0 | 0 | 0 | 1.4 | 26.5 | – | – | 88 (1) mm^3 | No tumor regressions | –
CC(=O)O[C@H]1C(=O)[C@@]2(C)[C@H]([C@H](OC(=O)c3ccccc3)[C@]3(O)C[C@H](OC(=O)[C@H](O)[C@@H](NC(=O)c4ccccc4)c4ccccc4)C(C)=C1C3(C)C)[C@]1(OC(C)=O)CO[C@@H]1C[C@@H]2O [Paclitaxel, paclitaxel] | 59 | 0 | 1 | 0 | 14.7 | 39.8 | 22 | 0 | 0 | 0 | 5.6 | 30.7 | – | – | – | – | 1/10
